According to US20260124201A1, “CYCLOPENTANE COMPOUND” (Kissei Pharmaceutical Co., Ltd., priority 2022, published 2026):

Target: T1, human OX2R (Homo sapiens, UniProt O43614)
T1 construct: expressed in transfected cells
T1 sequence (O43614 1-444): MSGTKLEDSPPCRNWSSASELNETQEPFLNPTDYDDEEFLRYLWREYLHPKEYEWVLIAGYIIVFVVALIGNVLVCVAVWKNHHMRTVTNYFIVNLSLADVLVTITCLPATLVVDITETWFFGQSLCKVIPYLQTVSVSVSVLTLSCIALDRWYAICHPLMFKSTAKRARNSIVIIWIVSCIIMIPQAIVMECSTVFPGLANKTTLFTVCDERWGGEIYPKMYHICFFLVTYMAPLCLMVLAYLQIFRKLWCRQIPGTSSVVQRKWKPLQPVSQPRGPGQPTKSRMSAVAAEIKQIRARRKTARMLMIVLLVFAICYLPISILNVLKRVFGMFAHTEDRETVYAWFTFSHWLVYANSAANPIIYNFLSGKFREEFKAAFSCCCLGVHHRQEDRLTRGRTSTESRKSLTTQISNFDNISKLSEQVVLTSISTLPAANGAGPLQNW
Test: Measurement of OX2R agonist activity (intracellular calcium concentration change, Fluo4-AM, FDSS 7000)
Type: cell-based
Details: compound concentration 10 μM; human OX2R-expressing CHO-K1 cells; 1 μM human orexin A peptide = 100%, medium alone = 0%
From the text: The following abbreviations in the description, the figures and the tables have the following meanings, respectively. • AZADOL (registered trademark): 2-Hydroxy-2-azaadamantane • Boc2O: di-tert-butyl dicarbonate • DIPEA: N,N-diisopropylethylamine • DCM: dichloromethane • DMAP: 4-dimethylaminopyridine • DMF: N,N-dimethylformamide • DMSO: dimethylsulfoxide • Deoxo-Fluor: bis(2-methoxyethyl)-aminosulfur trifluoride • HATU: O-(7-azabenzotriazol-1-yl)-N,N,N′,N′-tetramethyluronium hexafluorophosphate • LDA: lithium diisopropylamide • MeCN: acetonitrile • Me4tBuXPhos: 2-di-tert-butylphosphino-3,4,5,6-tetramethyl-2′,4′,6′-triisopropyl-1,1′-biphenyl • MTBE: methyl tert-butyl ether • NMP: N-methylpyrrolidone • PdCl2(PPh3)2: dichlorobis(triphenylphosphine)palladium(II) • Pd(dba)2: bis(dibenzylideneacetone)palladium(0) • Pd2(dba)3: tris(dibenzylideneacetone)dipalladium(0) • Pd(dppf)Cl2: [1,1′-bis(diphenylphosphino)ferrocene]dichloropalladium(II) • Pd(PPh3)4: tetrakis(triphenylphosphine)palladium(0) • TEA: triethylamine • TFA: trifluoroacetic acid • THF: tetrahydrofuran • Xphos: 2-dicyclohexylphosphino-2′,4′,6′-triisopropylbiphenyl • Xphos Pd G3: (2-dicyclohexylphosphino-2′,4′,6′-triisopropyl-1,1′-biphenyl)[2-(2′-amino-1,1′-biphenyl)]palladium(II) methanesulfonic acid salt • 10% Pd/C: Palladium 10% on Carbon (wetted with ca. 55% water) • APS: aminopropylated silica gel • ODS: octadecyl-silylated silica gel • Method A: column chromatography with an aminopropylated silica gel column followed by a silica gel column • Chiral preparative column chromatography: chiral preparative column chromatography using YMC CHIRALART Cellulose-SB • Ref. No.: Reference Example Number • Str.: structural formula • Ex. No.: Example Number • Phys. data: physical data • ^1H-NMR: hydrogen nuclear magnetic resonance spectrum • CDCl3: chloroform-d1 • MS: mass spectrometry (The measured values in the tables were measured by electrospray ionization or multiionization using electrospray ionization-atmospheric pressure chemical ionization.) • Act.: activation rate of test substance at a compound concentration of 10 μM calculated by setting the fluorescence intensity obtained when human orexin A peptide was added at a concentration of 1 μM as 100% and the fluorescence intensity obtained when the medium alone was added as 0% • CHO: Chinese hamster ovary • HEPES: 2-[4-(2-hydroxyethyl)-1-piperazinyl]ethanesulfonic acid
A human OX2R sequence (Accession No. NM_001526.4) was inserted into the multiple cloning site of pcDNA3.4 (Life Technologies Japan Ltd.) to clone a plasmid vector for human OX2R expression. The plasmid was introduced into CHO-K1 cells using Lipofectamine 2000 (Life Technologies Japan Ltd.). Two days later, the transgenic CHO-K1 cells were passaged into 175T flasks and cultured selectively for 6 days. As a selection medium, Ham's F-12 Nutrient Mix (Life Technologies Japan Ltd.), containing Geneticin (registered trademark) (Life Technologies Japan Ltd.) at a final concentration of 1 mg/mL and inactivated fetal bovine serum (Biowest) at a final concentration of 10%, was used. After the selective culture, the cells were reseeded into 96-well plates, and a human OX2R-expressing cell line was obtained by limiting dilution.
The agonist effects of test substances on human OX2R were evaluated using the intracellular calcium concentration-change upon stimulation as an indicator. A day before measurement of the intracellular calcium concentrations, human OX2R-expressing cells suspended in a medium were seeded into 384-well plates at 5×10^3 cells/50 μL/well and cultured overnight in an incubator set at 37° C. and 5% CO2. After incubation, the medium was removed and replaced with 20 μL of a loading buffer. […]

Row | Structure (SMILES) | Act. (%): activation rate of test substance [%]
1 | CCNC(=O)[C@@]1(Cc2cccc(-c3ccccc3)c2)CC[C@H](NS(C)(=O)=O)C1 (relative stereo) [Example 1, (1R*,3S*)-1-([1,1′-Biphenyl]-3-ylmethyl)-N-ethyl-3-(methylsulfonamido)cyclopentane-1-carboxamide] | 50
2 | CON(C)C(=O)[C@@]1(Cc2cccc(-c3ccccc3)c2)CC[C@H](NS(C)(=O)=O)C1 (relative stereo) [Example 2, (1R*,3S*)-1-([1,1′-Biphenyl]-3-ylmethyl)-N-methoxy-N-methyl-3-(methylsulfonamido)cyclopentane-1-carboxamide] | 84
3 | CON(C)C(=O)[C@@]1(Cc2ccc(F)c(-c3ccccc3F)c2)CC[C@H](NS(C)(=O)=O)C1 (relative stereo) [Example 3, (1R*,3S*)-1-((2′,6-Difluoro-[1,1′-biphenyl]-3-yl)methyl)-N-methoxy-N-methyl-3-(methylsulfonamido)cyclopentane-1-carboxamide] | 93
4 | CON(C)C(=O)[C@@]1(Cc2ccc(F)c(-c3ccc(F)cc3)c2)CC[C@H](NS(C)(=O)=O)C1 (relative stereo) [Example 4] | 82
5 | CON(C)C(=O)[C@@]1(Cc2ccc(F)c(-c3cc(F)cc(F)c3)c2)CC[C@H](NS(C)(=O)=O)C1 (relative stereo) [Example 5] | 73
6 | CNS(=O)(=O)N[C@H]1CC[C@](Cc2cccc(-c3ccccc3)c2)(C(=O)N(C)OC)C1 (relative stereo) [Example 6, (1R*,3S*)-1-([1,1′-Biphenyl]-3-ylmethyl)-N-methoxy-N-methyl-3-((N-methylsulfamoyl)amino)cyclopentane-1-carboxamide] | 92
7 | CS(=O)(=O)N[C@H]1CC[C@](Cc2cccc(-c3ccccc3)c2)(C(=O)N2CCCO2)C1 (relative stereo) [Example 7, N-((1S*,3R*)-3-([1,1′-Biphenyl]-3-ylmethyl)-3-(isoxazolidine-2-carbonyl)cyclopentyl)methanesulfonamide] | 70
8 | C[C@H]1CCCN1C(=O)[C@@]1(Cc2cccc(-c3ccccc3)c2)CC[C@H](NS(C)(=O)=O)C1 (relative stereo) [Example 8] | 75
9 | C[C@@H]1CCCN1C(=O)[C@@]1(Cc2cccc(-c3ccccc3)c2)CC[C@H](NS(C)(=O)=O)C1 (relative stereo) [Example 9] | 58
10 | CON(C)C(=O)[C@@]1(Cc2cccc(-c3ccccc3C#N)c2)CC[C@H](NS(C)(=O)=O)C1 (relative stereo) [Example 10, (1R*,3S*)-1-((2′-Cyano-[1,1′-biphenyl]-3-yl)methyl)-N-methoxy-N-methyl-3-(methylsulfonamido)cyclopentane-1-carboxamide] | 41
11 | CON(C)C(=O)[C@@]1(Cc2cccc(-c3ccccc3O)c2)CC[C@H](NS(C)(=O)=O)C1 (relative stereo) [Example 11] | 71
12 | CON(C)C(=O)[C@@]1(Cc2cccc(-c3ccc(F)cn3)c2)CC[C@H](NS(C)(=O)=O)C1 (relative stereo) [Example 12, (1R*,3S*)-1-(3-(5-Fluoropyridin-2-yl)benzyl)-N-methoxy-N-methyl-3-(methylsulfonamido)cyclopentane-1-carboxamide] | 86
13 | CON(C)C(=O)[C@@]1(Cc2cccc(-c3nc(C)co3)c2)CC[C@H](NS(C)(=O)=O)C1 (relative stereo) [Example 13] | 90
14 | CON(C)C(=O)[C@@]1(Cc2cccc(-c3ccco3)c2)CC[C@H](NS(C)(=O)=O)C1 (relative stereo) [Example 14] | 93
